{"source": "paper PMC6120666", "about": "(The EMBO Journal, 2018)", "key": {"[1]": {"target": "T1, recombinant RIPK3 (Homo sapiens, UniProt Q9Y572)", "T1 construct": "made in house", "T1 sequence (Q9Y572 whole entry, species assumed, the tested form may be a part)": "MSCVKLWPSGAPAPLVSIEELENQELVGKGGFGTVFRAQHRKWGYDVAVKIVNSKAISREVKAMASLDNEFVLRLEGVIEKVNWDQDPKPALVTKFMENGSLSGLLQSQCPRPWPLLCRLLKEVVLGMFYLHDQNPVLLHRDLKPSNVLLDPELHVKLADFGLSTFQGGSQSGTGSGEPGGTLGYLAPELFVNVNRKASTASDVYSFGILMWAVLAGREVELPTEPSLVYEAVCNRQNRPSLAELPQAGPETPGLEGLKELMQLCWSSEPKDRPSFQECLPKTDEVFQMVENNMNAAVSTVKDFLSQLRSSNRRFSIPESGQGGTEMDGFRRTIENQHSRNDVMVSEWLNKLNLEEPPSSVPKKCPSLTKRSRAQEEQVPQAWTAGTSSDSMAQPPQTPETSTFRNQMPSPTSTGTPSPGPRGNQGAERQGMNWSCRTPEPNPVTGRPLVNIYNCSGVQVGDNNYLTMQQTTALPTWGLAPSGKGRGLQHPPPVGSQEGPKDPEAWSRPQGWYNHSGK", "assay": "RIPK3 ADPGlo kinase assay", "type": "biochemical", "conditions": "concentrations up to 1 µM", "protocol": "Cell viability was determined using CellTiter‐Glo assay (Promega). […] Kinase activities were determined using ADPGlo assay (Promega). • Structure of the active conformation of RIPK2 kinase domain in complex with AMP‐PNP (PDB ID: 5AR3). Figure depicts locations of the adenine and deep pockets. […] Key residues discussed in the text are shown as sticks (Lys/Glu Glu‐in bond—bottom left, catalytic Asp residues (Asp146/Asp164)—bottom right, R‐spine—right). P‐loop of CSLP18 structure is shown in yellow. Structured segment of activation segment (AS) observed in active conformation structures is shown in red. • Structure of RIPK2 kinase domain (gray ribbons) in complex with CSLP18 (orange) (PDB ID 6FU5). Sticks are shown for residues in the vicinity of the cavity surrounding the key inhibitor position R1. A 2Fo‐Fc electron density map contoured at 1 sigma is shown for the inhibitor and the residues lining the key region around inhibitor R^1 position. • Molecular docking model of RIPK2 kinase domain in complex with CSLP37 (yellow) based on RIPK2/CSLP18 structure (Fig 3D). […] Data information: Data in (A–C, G) represent the mean ± SEM of three independent experiments. **P < 0.01. Two‐way ANOVA was used to determine statistical significance. […]"}, "[2]": {"target": "T2, proteins of U2OS cell lysate (Homo sapiens, UniProt P62195)", "T2 construct": "Proteins enriched by c-ponatinib from U2OS cell lysate; endogenous in cells; host or cells: U2OS cell lysate", "T2 sequence (P62195 whole entry)": "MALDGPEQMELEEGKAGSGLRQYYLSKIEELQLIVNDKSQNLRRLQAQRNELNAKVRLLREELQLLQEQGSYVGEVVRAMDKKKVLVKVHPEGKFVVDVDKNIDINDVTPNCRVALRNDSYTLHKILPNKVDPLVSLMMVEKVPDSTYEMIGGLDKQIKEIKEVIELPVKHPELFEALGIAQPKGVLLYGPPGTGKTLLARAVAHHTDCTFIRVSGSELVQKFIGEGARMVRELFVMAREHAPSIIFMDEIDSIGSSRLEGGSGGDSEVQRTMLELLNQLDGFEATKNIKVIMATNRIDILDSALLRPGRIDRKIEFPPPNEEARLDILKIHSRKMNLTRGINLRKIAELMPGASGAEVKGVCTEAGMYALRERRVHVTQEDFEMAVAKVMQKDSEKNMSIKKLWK", "assay": "Drug affinity chromatography with c-ponatinib and LC-MS/MS (ponatinib interactome)", "type": "binding", "protocol": "(§1) Drug affinity chromatography\n(§2) U2OS cells were grown until approximately 80% confluent before being pelleted and washed with PBS. Cell pellets were subsequently lysed in buffer A (50 mM Tris pH 7.5, 0.8% v/v NP-40, 5% v/v glycerol, 1.5 mM MgCl2, 100 mM NaCl, 25 mM NaF, 1 mM Na3VO4, 1 mM PMSF, 1mM DTT, 10 μg/mL TLCK, 1 μg/ml Leupeptin, 1 μg/ml Aprotinin, 1 μg/ml soy bean trypsin) and lysates prepared […]\n(§3) concentration was determined and lysates stored at -80 °C.\n(§4) Briefly, 100 μl of bead slurry (50% in isopropanol) were used for each pulldown experiment. Beads were washed with DMSO (3 × 500 μl), and resuspended in DMSO (50 μl), to which the amine (0.025 μmol) and triethylamine (0.75 μl) were added. The beads were incubated at room temperature for 16 h, and depletion of free amine from the supernatant was determined by LC-MS analysis. Ethanolamine (2.5 μl) was then added to block any unreacted NHS sites, and the beads incubated for a further 16 h. Derivatized beads were then washed with DMSO (3 × 500 μl), buffer A (3 × 1 ml), and incubated with cell lysates (2 mg of protein per pulldown, at 6 […]\n(§5) Beads and treated lysates were incubated for 2 h at 4 °C before washing with buffer A (5 ml), Buffer B (50 mM HEPES pH 7.5, 100 mM NaCl, 500 μM EDTA, 2.5 ml), and eluted with formic acid (100 mM, 250 μl). Samples were neutralized with triethylammoniumbicarbonate (TEAB, 1M, 62.5 μl) and stored at -20 °C until preparation for proteomic analysis.\n(§6) Samples were reduced with DTT (10 mM final concentration) for 30 min at room temperature, alkylated with iodoacetamide (55 mM final concentration) for 30 min at room temperature, diluted to 300 μl with TEAB, and incubated with trypsin (6 μl, 0.2 mg/ml) overnight at 37 °C. The digests were desalted using SEPAC lite columns (Waters), eluted with 69 % v/v MeCN, 0.1 % v/v FA in H2O (1 ml) and dried in vacuo. Dried peptides were stored at -20 °C before resuspension in 2 % v/v MeCN, 1 % v/v FA in H2O (20 μl) for LC-MS/MS analysis.\n(§7) LC-MS/MS data acquisition\n(§8) Mass spectrometry data was acquired at the Discovery Proteomics Facility (University of Oxford).\n(§9) Digested samples were analyzed by nano-UPLC–MS/MS using a Dionex Ultimate 3000 nano UPLC with EASY spray column (75 μm × 500 mm, 2 μm particle size, Thermo Fisher Scientific) with a 60 min gradient of 0.1 % (v/v) formic acid in 5 % (v/v) DMSO to 0.1 % (v/v) formic acid with 35 % (v/v) acetonitrile in 5 % (v/v) DMSO at a flow rate of approximately 250 nl min−1 (600 bar per 40 °C column temperature). Mass spectrometry data was acquired either with an Orbitrap Q Exactive (Survey scans acquired at a resolution of 70,000 @ 200m/z and the 15 most abundant precursors were selected for HCD fragmentation), or an Orbitrap Q Exactive High Field (HF) instrument (survey scans were […]"}, "[3]": {"target": "T3, proteins of U2OS cell lysate (Homo sapiens, UniProt Q15019)", "T3 construct": "Proteins enriched by c-ponatinib from U2OS cell lysate; endogenous in cells; host or cells: U2OS cell lysate", "T3 sequence (Q15019 whole entry)": "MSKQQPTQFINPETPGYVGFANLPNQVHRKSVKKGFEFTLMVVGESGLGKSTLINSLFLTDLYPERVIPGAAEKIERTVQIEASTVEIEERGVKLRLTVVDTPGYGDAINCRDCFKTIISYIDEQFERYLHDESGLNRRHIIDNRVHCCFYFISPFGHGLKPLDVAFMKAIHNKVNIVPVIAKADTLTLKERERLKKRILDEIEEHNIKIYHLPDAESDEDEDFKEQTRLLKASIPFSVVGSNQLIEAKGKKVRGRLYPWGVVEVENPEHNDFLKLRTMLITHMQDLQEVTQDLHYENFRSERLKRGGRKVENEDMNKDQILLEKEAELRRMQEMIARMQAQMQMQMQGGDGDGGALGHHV", "assay": "Drug affinity chromatography with c-ponatinib and LC-MS/MS (ponatinib interactome)", "type": "binding", "protocol": "as §1, §2, §3, §4, §5, §6, §7, §8, §9"}, "[4]": {"target": "T4, proteins of U2OS cell lysate (Homo sapiens, UniProt Q9UP83)", "T4 construct": "Proteins enriched by c-ponatinib from U2OS cell lysate; endogenous in cells; host or cells: U2OS cell lysate", "assay": "Drug affinity chromatography with c-ponatinib and LC-MS/MS (ponatinib interactome)", "type": "binding", "protocol": "as §1, §2, §3, §4, §5, §6, §7, §8, §9"}, "[5]": {"target": "T5, proteins of U2OS cell lysate (Homo sapiens, UniProt Q13233)", "T5 construct": "Proteins enriched by c-ponatinib from U2OS cell lysate; endogenous in cells; host or cells: U2OS cell lysate", "T5 sequence (Q13233 whole entry)": "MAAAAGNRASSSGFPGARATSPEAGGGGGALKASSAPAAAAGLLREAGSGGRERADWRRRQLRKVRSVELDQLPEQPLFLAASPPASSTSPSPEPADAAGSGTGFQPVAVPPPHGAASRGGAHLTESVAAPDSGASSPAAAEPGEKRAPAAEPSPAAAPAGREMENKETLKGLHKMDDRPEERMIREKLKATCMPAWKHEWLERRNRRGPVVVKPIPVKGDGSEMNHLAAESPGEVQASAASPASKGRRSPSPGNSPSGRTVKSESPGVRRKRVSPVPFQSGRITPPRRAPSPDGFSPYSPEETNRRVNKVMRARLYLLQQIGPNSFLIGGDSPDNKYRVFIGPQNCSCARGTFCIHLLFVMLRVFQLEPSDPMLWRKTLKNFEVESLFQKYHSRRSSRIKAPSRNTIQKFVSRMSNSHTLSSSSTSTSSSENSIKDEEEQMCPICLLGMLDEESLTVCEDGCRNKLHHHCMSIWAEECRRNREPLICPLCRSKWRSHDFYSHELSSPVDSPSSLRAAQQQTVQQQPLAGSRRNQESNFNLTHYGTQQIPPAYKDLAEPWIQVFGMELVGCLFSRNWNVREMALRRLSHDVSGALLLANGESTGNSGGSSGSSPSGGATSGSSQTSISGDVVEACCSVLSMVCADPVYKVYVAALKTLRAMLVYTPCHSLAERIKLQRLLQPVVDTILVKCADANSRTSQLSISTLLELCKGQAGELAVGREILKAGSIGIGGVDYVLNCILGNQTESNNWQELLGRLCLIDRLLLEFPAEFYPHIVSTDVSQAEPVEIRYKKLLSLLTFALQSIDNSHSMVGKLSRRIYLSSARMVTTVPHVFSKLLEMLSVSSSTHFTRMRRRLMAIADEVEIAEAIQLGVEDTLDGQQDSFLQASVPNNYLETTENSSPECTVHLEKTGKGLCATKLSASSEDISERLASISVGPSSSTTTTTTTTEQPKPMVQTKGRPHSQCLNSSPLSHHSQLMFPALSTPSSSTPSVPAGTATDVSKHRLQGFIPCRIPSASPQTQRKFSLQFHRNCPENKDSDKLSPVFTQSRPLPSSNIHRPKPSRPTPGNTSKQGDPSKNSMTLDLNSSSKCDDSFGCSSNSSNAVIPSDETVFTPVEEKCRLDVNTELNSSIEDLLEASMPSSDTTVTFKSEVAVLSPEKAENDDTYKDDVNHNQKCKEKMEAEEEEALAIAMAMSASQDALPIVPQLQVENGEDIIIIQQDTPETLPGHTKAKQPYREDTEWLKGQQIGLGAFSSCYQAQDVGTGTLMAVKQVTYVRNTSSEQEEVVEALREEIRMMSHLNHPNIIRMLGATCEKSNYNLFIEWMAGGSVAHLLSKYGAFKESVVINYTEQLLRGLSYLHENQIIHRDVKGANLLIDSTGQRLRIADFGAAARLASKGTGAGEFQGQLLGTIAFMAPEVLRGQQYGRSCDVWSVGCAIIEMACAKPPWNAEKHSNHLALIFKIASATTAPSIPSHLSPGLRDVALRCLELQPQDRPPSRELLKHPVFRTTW", "assay": "Drug affinity chromatography with c-ponatinib and LC-MS/MS (ponatinib interactome)", "type": "binding", "protocol": "as §1, §2, §3, §4, §5, §6, §7, §8, §9"}, "[6]": {"target": "T6, proteins of U2OS cell lysate (Homo sapiens, UniProt P60900)", "T6 construct": "Proteins enriched by c-ponatinib from U2OS cell lysate; endogenous in cells; host or cells: U2OS cell lysate", "T6 sequence (P60900 whole entry)": "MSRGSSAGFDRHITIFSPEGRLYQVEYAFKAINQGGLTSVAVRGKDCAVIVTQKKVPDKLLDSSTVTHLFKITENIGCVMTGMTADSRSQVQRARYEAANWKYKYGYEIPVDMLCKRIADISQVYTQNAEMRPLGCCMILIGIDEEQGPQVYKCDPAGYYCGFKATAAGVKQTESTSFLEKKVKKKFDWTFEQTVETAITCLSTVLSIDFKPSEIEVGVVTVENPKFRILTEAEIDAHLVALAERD", "assay": "Drug affinity chromatography with c-ponatinib and LC-MS/MS (ponatinib interactome)", "type": "binding", "protocol": "as §1, §2, §3, §4, §5, §6, §7, §8, §9"}, "[7]": {"target": "T7, proteins of U2OS cell lysate (Homo sapiens, UniProt O95373)", "T7 construct": "Proteins enriched by c-ponatinib from U2OS cell lysate; endogenous in cells; host or cells: U2OS cell lysate", "T7 sequence (O95373 whole entry)": "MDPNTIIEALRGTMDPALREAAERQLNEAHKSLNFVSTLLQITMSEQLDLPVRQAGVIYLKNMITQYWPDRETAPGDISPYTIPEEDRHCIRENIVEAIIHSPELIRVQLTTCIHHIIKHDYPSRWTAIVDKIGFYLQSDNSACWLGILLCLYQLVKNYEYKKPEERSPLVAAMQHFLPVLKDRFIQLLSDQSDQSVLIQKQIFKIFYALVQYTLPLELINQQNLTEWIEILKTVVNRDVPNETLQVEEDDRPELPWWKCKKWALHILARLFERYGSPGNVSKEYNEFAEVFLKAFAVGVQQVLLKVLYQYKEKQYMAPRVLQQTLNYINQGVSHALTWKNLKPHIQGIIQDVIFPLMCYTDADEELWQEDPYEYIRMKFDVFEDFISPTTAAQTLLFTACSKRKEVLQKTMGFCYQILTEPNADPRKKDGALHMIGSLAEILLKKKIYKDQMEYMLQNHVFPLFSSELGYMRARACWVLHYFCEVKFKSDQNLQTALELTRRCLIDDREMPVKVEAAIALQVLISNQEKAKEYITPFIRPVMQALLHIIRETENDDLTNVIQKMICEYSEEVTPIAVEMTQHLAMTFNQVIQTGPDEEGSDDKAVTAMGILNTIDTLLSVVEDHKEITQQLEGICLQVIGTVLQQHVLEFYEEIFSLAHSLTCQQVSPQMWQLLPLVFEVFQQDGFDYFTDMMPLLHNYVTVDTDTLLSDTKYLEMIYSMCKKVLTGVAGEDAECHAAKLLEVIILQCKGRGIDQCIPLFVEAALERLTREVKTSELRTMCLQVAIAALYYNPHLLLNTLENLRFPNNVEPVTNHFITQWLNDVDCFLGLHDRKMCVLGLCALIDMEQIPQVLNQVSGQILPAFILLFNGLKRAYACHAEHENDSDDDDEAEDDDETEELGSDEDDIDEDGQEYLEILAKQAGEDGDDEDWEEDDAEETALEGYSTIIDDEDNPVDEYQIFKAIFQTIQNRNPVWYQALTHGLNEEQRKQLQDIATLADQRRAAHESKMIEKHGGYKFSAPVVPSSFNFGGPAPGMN", "assay": "Drug affinity chromatography with c-ponatinib and LC-MS/MS (ponatinib interactome)", "type": "binding", "protocol": "as §1, §2, §3, §4, §5, §6, §7, §8, §9"}, "[8]": {"target": "T8, proteins of U2OS cell lysate (Homo sapiens, UniProt Q9Y230)", "T8 construct": "Proteins enriched by c-ponatinib from U2OS cell lysate; endogenous in cells; host or cells: U2OS cell lysate", "T8 sequence (Q9Y230 whole entry)": "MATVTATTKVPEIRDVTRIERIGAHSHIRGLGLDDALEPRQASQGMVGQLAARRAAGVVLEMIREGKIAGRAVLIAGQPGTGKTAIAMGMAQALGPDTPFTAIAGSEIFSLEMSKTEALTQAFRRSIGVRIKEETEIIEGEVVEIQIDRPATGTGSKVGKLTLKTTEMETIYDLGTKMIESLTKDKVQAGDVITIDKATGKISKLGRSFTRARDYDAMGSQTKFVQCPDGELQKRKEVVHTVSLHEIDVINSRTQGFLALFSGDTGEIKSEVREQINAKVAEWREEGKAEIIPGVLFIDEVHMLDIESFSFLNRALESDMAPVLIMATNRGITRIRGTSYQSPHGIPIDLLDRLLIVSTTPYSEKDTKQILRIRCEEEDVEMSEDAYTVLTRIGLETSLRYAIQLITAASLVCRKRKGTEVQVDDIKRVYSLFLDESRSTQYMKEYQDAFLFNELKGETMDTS", "assay": "Drug affinity chromatography with c-ponatinib and LC-MS/MS (ponatinib interactome)", "type": "binding", "protocol": "as §1, §2, §3, §4, §5, §6, §7, §8, §9"}, "[9]": {"target": "T9, proteins of U2OS cell lysate (Homo sapiens, UniProt P09619)", "T9 construct": "Proteins enriched by c-ponatinib from U2OS cell lysate; endogenous in cells; host or cells: U2OS cell lysate", "assay": "Drug affinity chromatography with c-ponatinib and LC-MS/MS (ponatinib interactome)", "type": "binding", "protocol": "as §1, §2, §3, §4, §5, §6, §7, §8, §9"}}, "data": [{"smiles": "CCCS(=O)(=O)Nc1cc(-c2cc(-c3ccc(N4CCNCC4)cc3)cnc2N)cc(OC)c1OC", "note": "[CSLP43]", "values": [{"measurement": "inhibitory activity against RIPK3", "setting": "[1]", "value": "no inhibitory activity"}]}, {"smiles": "Cc1ccc(C(=O)Nc2ccc(CN3CCN(CCCN)CC3)c(C(F)(F)F)c2)cc1C#Cc1cnc2cccnn12", "note": "[c-ponatinib, reference compound]", "values": [{"measurement": "Average LFQ intensity", "setting": "[2]; captured protein PSMC5, Rank 176", "value": 22.2388}, {"measurement": "Average LFQ intensity", "setting": "[3]; captured protein 2002-09-01 (Septin-2), Rank 174", "value": 22.2443}, {"measurement": "Average LFQ intensity", "setting": "[4]; captured protein COG5, Rank 186", "value": 22.09}, {"measurement": "Average LFQ intensity", "setting": "[5]; captured protein MAP3K1, Rank 139", "value": 22.7864}, {"measurement": "Average LFQ intensity", "setting": "[6]; captured protein PSMA6, Rank 175", "value": 22.244}, {"measurement": "Average LFQ intensity", "setting": "[7]; captured protein IPO7, Rank 116", "value": 23.1828}, {"measurement": "Average LFQ intensity", "setting": "[8]; captured protein RUVBL2, Rank 173", "value": 22.2484}, {"measurement": "Average LFQ intensity", "setting": "[9]; captured protein PDGFRB, Rank 168", "value": 22.3008}]}, {"smiles": "Cc1ccc(C(=O)Nc2ccc(CN3CCN(C)CC3)c(C(F)(F)F)c2)cc1C#Cc1cnc2cccnn12", "note": "[PON]", "values": [{"measurement": "Average LFQ PON_WT", "setting": "[2]; PSMC5, 26S protease regulatory subunit 8", "value": 22.2388}, {"measurement": "Average LFQ PON_WT", "setting": "[3]; SEPT2, Septin-2", "value": 22.2443}, {"measurement": "Average LFQ PON_WT", "setting": "[4]; COG5, Conserved oligomeric Golgi complex subunit 5", "value": 22.09}, {"measurement": "Average LFQ PON_WT", "setting": "[5]; MAP3K1, Mitogen-activated protein kinase kinase kinase 1", "value": 22.7864}, {"measurement": "Average LFQ PON_WT", "setting": "[6]; PSMA6, Proteasome subunit alpha type-6", "value": 22.244}, {"measurement": "Average LFQ PON_WT", "setting": "[7]; IPO7, Importin-7", "value": 23.1828}, {"measurement": "Average LFQ PON_WT", "setting": "[8]; RUVBL2, RuvB-like 2", "value": 22.2484}, {"measurement": "Average LFQ PON_WT", "setting": "[9]; PDGFRB, Platelet-derived growth factor receptor beta", "value": 22.3008}]}, {"smiles": "CCCS(=O)(=O)Nc1cc(-c2cc(-c3ccc(N4CCNCC4)cc3)cnc2N)cc(F)c1OC", "note": "[CSLP37]", "values": [{"measurement": "inhibitory activity against RIPK3", "setting": "[1]", "value": "no inhibitory activity"}]}]}
